Reference: patent US6492370B1, “Urea derivatives and pharmaceutical compositions thereof” (Santen Pharmaceutical Co., Ltd., priority 1998, dated 2002)

Columns and labels:
[1] = system: TNF-α production induced by lipopolysaccharide (LPS) stimulation; experiment: In vivo test: TNF-α levels in plasma of LPS-administered rats; set-up: species or system rat; conditions: female rats, oral administration of 50 mg/kg immediately after subcutaneous LPS, plasma two hours after LPS; for inhibition in vivo at 50 mg/kg: Rattus norvegicus, 2 h, read-out: Inhibition rate (%) (TNF-α production inhibition rates)
Description: (§1) Inhibitory effects on TNF-α production induced by lipopolysaccharide (LPS) stimulation were studied by in vitro or in vivo tests according to the method of McGeehan et al. (Nature, 370, […](1994)).
Female rats (five per group), body weight of about 200 g,about eight weeks old, were used as test animals. With respect to LPS to be used, LPS from Salmonella was dissolved in physiological saline (1 mg/ml). Test compounds were dissolved or uniformly suspended in a 1% aqueous methylcellulose solution.
The above-mentioned LPS solution (0.5 ml/kg) was subcutaneously administered to the rat. Immediately after the LPS administration, the test compound preparation liquid (5 ml/kg, containing 50 mg/kg test compound) was orally administered. Two hours after the LPS administration, blood was collected from abdominal aorta and was centrifuged at 4° C. and 3000 rpm for ten minutes. TNF-α levels in the obtained plasma were measured with a rat TNF-α-specific ELISA kit. TNF-α was not observed in the plasma with respect to an LPS-nonadministered group (control).
(§2) TNF-α production inhibition rates of the test compounds were determined by the following equation.
(§3) Inhibition rate (%)=[(A-B)/A]×100
A: TNF-α level in plasma of test compound-nonadministered group
B: TNF-α level in plasma of test compound-administered group

[2] = system: TNF-α production from human monocytic line THP-1 by LPS stimulation; experiment: In vitro test: TNF-α production from human monocytic line THP-1 by LPS stimulation; assay type: cell-based; conditions: 2 h; test compound 10^−5 M, THP-1 cells 10^6/ml, LPS 2 μg/ml, 37° C. for two hours, human TNF-α specific ELISA; read-out: Inhibition rate (%) (TNF-α inhibition rates)
Description: as §1
Analyses were carried out by measuring TNF-α production from human monocytic line THP-1 by LPS stimulation.
As a medium, an RPMI1640medium containing a fetal bovine serum(10%), L-glutamine (2 mM), 2-mercaptoethanol (50 μM), penicillin (50 units/ml) and streptomycin (50 μg/ml) was used.
With respect to cells, human monocytic line THP-1 cells cultured in the above-mentioned medium were centrifuged at 100×g for five minutes to remove supernatant and then re-suspended in the medium. With respect to LPS, LPS from S. Typhimurium was dissolved in purified water and then diluted with the medium. Test compounds were dissolved in dimethyl sulfoxide (DMSO) and then diluted with the medium.
The cells (10^6/ml), LPS (2 μg/ml) and the test compound (10^−5 M) prepared as mentioned above were mixed, and this mixture was incubated at 37° C. for two hours and then centrifuged at 1000×g […] in cultured supernatant were measured with a human TNF-α specific ELISA kit. TNF-α production was not observed in the cultured supernatant in the absence of LPS (control).
as §2, §3
A: TNF-α level in supernatant of culture medium in the absence of test compound
B: TNF-α level in supernatant of culture medium in the presence of test compound

| melting point | SMILES | inhibition in vivo at 50 mg/kg [1] | inhibition at 10 µM [2] | other results |
| --- | --- | --- | --- | --- |
|  | CSCCC(NC(=O)N(CCSC(C)=O)CCc1ccccc1)C(=O)N1CCN(C)CC1 (racemic) [Compound No. 27-4, 1-[(2RS)-2-[3-[2-(Acetylthio)ethyl]-3-phenethylureido]-4-(methylthio)butyryl]-4-methylpiperazine] | 60.9% |  |  |
|  | CC(=O)SCCN(CCC1CCCCC1)C(=O)N[C@@H](C)C(=O)N1CCN(C)CC1 [Compound No. 13-1, 1-[(2S)-2-[3-[2-(Acetylthio)ethyl]-3-(2-cyclohexylethyl)ureido]propionyl]-4-methylpiperazine] | 84.6% |  |  |
|  | CC(=O)SCCN(CCc1ccccc1)C(=O)N[C@H](C)C(=O)N1CCN(C)CC1 [Compound No. 13-3, 1-[(2R)-2-[3-[2-(Acetylthio)ethyl]-3-phenethylureido]propionyl]-4-methylpiperazine] | 66.8% |  |  |
|  | CC(=O)SCCN(CCCc1ccccc1)C(=O)N[C@@H](C)C(=O)N1CCN(C)CC1 [Compound No. 13-12, 1-[(2S)-2-[3-[2-(Acetylthio)ethyl]-3-(3-phenylpropyl)ureido]propionyl]-4-methylpiperazine] | 62.3% |  |  |
|  | CC(=O)SCCN(CCOc1ccccc1)C(=O)N[C@@H](C)C(=O)N1CCN(C)CC1 [Compound No. 13-16] |  |  | Inhibition rate (%) (TNF-α production inhibition rates) [1]: 54.1% |
|  | CC(=O)SCCN(C(=O)N[C@@H](C)C(=O)N1CCN(C)CC1)c1ccccc1 [Compound No. 13-17, 1-[(2S)-2-[3-[2-(Acetylthio)ethyl]-3-phenylureido]propionyl]-4-methylpiperazine] | 50.3% |  |  |
|  | CC(=O)SCCN(CCc1ccccc1)C(=O)NCC(=O)N1CCN(C)CC1 [Compound No. 13-20, 1-[2-[3-[2-(Acetylthio)ethyl]-3-phenethylureido]acetyl]-4-methylpiperazine] | 66.6% |  |  |
| 230 °C (dec.) | CC(=O)SCCN(CCc1ccccc1)C(=O)N[C@@H](Cc1ccccc1)C(=O)N1CCN(CC(=O)O)CC1 [Compound No. 13-32, 1-[(2S)-2-[3-[2-(Acetylthio)ethyl]-3-phenethylureido]-3-phenylpropionyl]-4-(carboxymethyl)piperazine] |  |  |  |
|  | CC(=O)SCCN(CCC1CCCCC1)C(=O)N[C@@H](C)C(=O)N1CCCCC1 [Compound No. 13-49, 1-[(2S)-2-[3-[2-(Acetylthio)ethyl]-3-(2-cyclohexylethyl)ureido]propionyl]piperidine] | 90% |  |  |
|  | CC(=O)SCCN(CCC1CCCCC1)C(=O)N[C@@H](C)C(=O)N1CCOCC1 [Compound No. 13-50, 4-[(2S)-2-[3-[2-(Acetylthio)ethyl]-3-(2-cyclohexylethyl)ureido]propionyl]morpholine] | 93.5% |  |  |
|  | CC(=O)SCCN(CCC1CCCC1)C(=O)N[C@@H](C)C(=O)N1CCN(C)CC1 [Compound No. 13-57, 1-[(2S)-2-[3-[2-(Acetylthio)ethyl]-3-(2-cyclopentylethyl)ureido]propionyl]-4-methylpiperazine] | 90.1% |  |  |
|  | CC(=O)SCCN(CCc1ccccc1)C(=O)N[C@@H](Cc1ccc([N+](=O)[O-])cc1)C(=O)NCCN(C(C)C)C(C)C [Compound No. 27-10] |  | 100% |  |
|  | CC(=O)SCCN(CCc1ccccc1)C(=O)N[C@@H](Cc1ccc(Cl)cc1)C(=O)NCCN(C)C [Compound No. 27-17, (2S)-2-[3-[2-(Acetylthio)ethyl]-3-phenethylureido]-3-(4-chlorophenyl)-N-[2-(dimethylamino)ethyl]propionamide] |  | 93.5% |  |
| 90 °C | CC(=O)SCCN(CCc1ccccc1)C(=O)N[C@@H](Cc1ccc(-c2ccccc2)c([N+](=O)[O-])c1)C(=O)NCCN(C)C [Compound No. 27-19, (2S)-2-[3-[2-(Acetylthio)ethyl]-3-phenethylureido]-N-[2-(dimethylamino)ethyl]-3-(2-nitro-4-biphenylyl)propionamide] |  | 93.5% |  |
|  | CC(=O)SCCN(CCc1ccccc1)C(=O)N[C@@H](Cc1ccc([N+](=O)[O-])cc1)C(=O)NCCN(C)C [Compound No. 27-41, (2S)-2-[3-[2-(Acetylthio)ethyl]-3-phenethylureido]-N-[2-(dimethylamino)ethyl]-3-(4-nitrophenyl)propionamide] |  | 93.8% |  |
|  | CN(C)CCNC(=O)[C@H](Cc1ccc([N+](=O)[O-])cc1)NC(=O)N(CCSC(=O)c1ccccc1)CCc1ccccc1 [Compound No. 27-42, (2S)-2-[3-[2-(Benzoylthio)ethyl]-3-phenethylureido]-N-[2-(dimethylamino)ethyl]-3-(4-nitrophenyl)propionamide] |  | 100% |  |
| 110 °C | CC(=O)SCCN(CCc1ccccc1)C(=O)N[C@@H](Cc1ccc([N+](=O)[O-])cc1)C(=O)NCCN1C(=O)c2ccccc2C1=O [Compound No. 27-45, (2S)-2-[3-[2-(Acetylthio)ethyl]-3-phenethylureido]-3-(4-nitrophenyl)-N-[2-(phthalimido)ethyl]propionamide] |  |  |  |
| 90 °C | CC(=O)SCCN(CCc1ccccc1)C(=O)N[C@@H](Cc1ccc([N+](=O)[O-])cc1)C(=O)NCCN(C)C1CCCCC1 [Compound No. 27-46, (2S)-2-[3-[2-(Acetylthio)ethyl]-3-phenethylureido]-N-[2-[(N-methyl)cyclohexylamino]ethyl]-3-(4-nitrophenyl)propionamide] |  | 100% |  |
| 65 °C | CCN(CC)CCNC(=O)[C@H](Cc1ccc([N+](=O)[O-])cc1)NC(=O)N(CCSC(C)=O)CCc1ccccc1 [Compound No. 27-47, (2S)-2-[3-[2-(Acetylthio)ethyl]-3-phenethylureido]-N-[2-(diethylamino)ethyl]-3-(4-nitrophenyl)propionamide] |  | 100% |  |
| 106 to 112.5 °C | CC(=O)SCCN(CCc1ccccc1)C(=O)N[C@@H](Cc1ccc([N+](=O)[O-])cc1)C(=O)NCCc1ccccn1 [Compound No. 27-50, (2S)-2-[3-[2-(Acetylthio)ethyl]-3-phenethylureido]-3-(4-nitrophenyl)-N-[2-(2-pyridyl)ethyl]propionamide] |  |  |  |
| 90 °C | CC(=O)SCCN(CCc1ccccc1)C(=O)N[C@@H](Cc1ccc(F)cc1)C(=O)NCCN(C)C [Compound No. 27-54, (2S)-2-[3-[2-(Acetylthio)ethyl]-3-phenethylureido]-N-[2-(dimethylamino)ethyl]-3-(4-fluorophenyl)propionamide] |  |  |  |
|  | COc1ccc(C[C@H](NC(=O)N(CCSC(C)=O)CCc2ccccc2)C(=O)NCCN(C)C)cc1 [Compound No. 27-56, (2S)-2-[3-[2-(Acetylthio)ethyl]-3-phenethylureido]-N-[2-(dimethylamino)ethyl]-3-(4-methoxyphenyl)propionamide] |  | 96.9% |  |
|  | CC(=O)SCCN(CCc1ccccc1)C(=O)N[C@@H](Cc1ccc2ccccc2c1)C(=O)NCCN(C)C [Compound No. 27-58, (2S)-2-[3-[2-(Acetylthio)ethyl]-3-phenethylureido]-N-[2-(dimethylamino)ethyl]-3-(2-naphthyl)propionamide] |  | 100% |  |
|  | CC(=O)SCCN(CCc1ccccc1)C(=O)N[C@@H](Cc1ccc(-c2ccccc2)cc1)C(=O)NCCN(C)C [Compound No. 27-59, (2S)-2-[3-[2-(Acetylthio)ethyl]-3-phenethylureido]-3-(4-biphenylyl)-N-[2-(dimethylamino)ethyl]propionamide] |  | 100% |  |
| 95 °C (dec.) | CC(=O)Nc1ccc(C[C@H](NC(=O)N(CCSC(C)=O)CCc2ccccc2)C(=O)NCCN(C)C)cc1 [Compound No. 27-82, (2S)-3-[4-(Acetylamino)phenyl]-2-[3-[2-(acetylthio)ethyl]-3-phenethylureido]-N-[2-(dimethylamino)ethyl]propionamide] |  |  |  |
|  | CC(=O)SCCN(CCC1=CCCCC1)C(=O)N[C@@H](C)C(=O)N1CCN(C)CC1 [Compound No. 27-84, 1-[(2S)-2-[3-[2-(Acetylthio)ethyl]-3-[2-(1-cyclohexenyl)ethyl]ureido]propionyl]-4-methylpiperazine] | 56.7% |  |  |
